tested on: Japanese bulrush; test: Test Example 2: herbicidal activity, application during weed generation under submerged conditions (Table 17, symbol B); assay type: in vivo, Japanese bulrush (Schoenoplectus juncoides); conditions: AAH 320 g/ha; application during weed generation, submerged conditions
How it was run: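 In this pot test, flooded alluvial soil (water depth 4 cm) holds all three species sown as a mixture. Once seedlings have one to two leaves, the compound's emulsion, thinned with water to the intended dose, is poured on the water; grading follows after three weeks on the earlier criteria.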

Question: With `CCCC(=O)Oc1c(C)nn(C)c(=O)c1-c1c(-c2ccc3c(c2)OCCO3)sc2cc(OC)ccc12` [3-083] as the compound, how does the “herbicidal effect rating, B: Japanese bulrush” value read?
Answer: Its value is 3 (Herbicidal rate of 40% or more and less than 70%).

Question: How did the “herbicidal effect rating, B: Japanese bulrush” value turn out when `CCOc1ccc2c(-c3c(O)c(C)nn(C)c3=O)c(-c3ccccc3OC)sc2c1` [3-089] was run?
Answer: Its value is 5 (Herbicidal rate of 90% or more (almost completely withered)).

tested on: Chinese sprangletop; test: Test Example 3: herbicidal effect by foliage application, Wagner pot (Table 18, symbol D); assay type: in vivo, chinese sprangletop (Leptochloa chinensis); conditions: 320 g/ha
How it was run: (§1)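 Plants were sown in alluvial soil held under 0.1–0.5 cm standing water and grown 14 days in a greenhouse at 25–30 °C. An emulsifiable formulation, water-diluted to the set dose, was then sprayed onto the foliage, and effects were scored three weeks later using previously defined criteria.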

Question: How did the “herbicidal effect on Chinese sprangletop (D)” value turn out when `CCCC(=O)Oc1c(C)nn(C)c(=O)c1-c1c(-c2ccc3c(c2)OCCO3)sc2cc(OC)ccc12` [3-083] was run?
Answer: Its value is 4 (Herbicidal rate of 70% or more and less than 90%).

Question: How did the “herbicidal effect on Chinese sprangletop (D)” value turn out when `CCOc1ccc2c(-c3c(O)c(C)nn(C)c3=O)c(-c3ccccc3OC)sc2c1` [3-089] was run?
Answer: The value was 4 (Herbicidal rate of 70% or more and less than 90%).

tested on: rice flat sedge; test: Test Example 3: herbicidal effect by foliage application, Wagner pot (Table 18, symbol E); assay type: in vivo, rice flat sedge (Cyperus iria); conditions: 320 g/ha
How it was run: as §1

Question: For `CCCC(=O)Oc1c(C)nn(C)c(=O)c1-c1c(-c2ccc3c(c2)OCCO3)sc2cc(OC)ccc12` [3-083], which “herbicidal effect on rice flat sedge (E)” value is on record?
Answer: Its value is 4 (Herbicidal rate of 70% or more and less than 90%).

Question: `CCOc1ccc2c(-c3c(O)c(C)nn(C)c3=O)c(-c3ccccc3OC)sc2c1` [3-089] was tested. Which “herbicidal effect on rice flat sedge (E)” value did it give?
Answer: The value was 5 (Herbicidal rate of 90% or more (almost completely withered)).

tested on: green foxtail; test: Test Example 4: herbicidal effect by soil treatment (Table 19, symbol G); assay type: in vivo, green foxtail (Setaria viridis); conditions: amount of applied herbicide 320 g/ha
How it was run: (§2)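 Pre-emergence style soil spray: seeds under ~1.5 cm sterilized diluvial soil received a uniform coat of emulsion diluted to the predetermined herbicide amount. Greenhouse 25–30° C; readout at week three on previously defined criteria.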

Question: Which “G: green foxtail, herbicidal effect grade” value does the source give for `CCCC(=O)Oc1c(C)nn(C)c(=O)c1-c1c(-c2ccc3c(c2)OCCO3)sc2cc(OC)ccc12` [3-083] here?
Answer: Its value is 4 (Herbicidal rate of 70% or more and less than 90%).

Question: For `CCOc1ccc2c(-c3c(O)c(C)nn(C)c3=O)c(-c3ccccc3OC)sc2c1` [3-089], which “G: green foxtail, herbicidal effect grade” value is on record?
Answer: Its value is 4 (Herbicidal rate of 70% or more and less than 90%).

tested on: barnyard grass; test: Test Example 4: herbicidal effect by soil treatment (Table 19, symbol H); assay type: in vivo, barnyard grass (Echinochloa crus-galli); conditions: amount of applied herbicide 320 g/ha
How it was run: as §2

Question: Which “H: barnyard grass, herbicidal effect grade” value (from here on “H: barnyard grass”) does the source give for `CCCC(=O)Oc1c(C)nn(C)c(=O)c1-c1c(-c2ccc3c(c2)OCCO3)sc2cc(OC)ccc12` [3-083] here?
Answer: Its value is 3 (Herbicidal rate of 40% or more and less than 70%).

Question: `CCOc1ccc2c(-c3c(O)c(C)nn(C)c3=O)c(-c3ccccc3OC)sc2c1` [3-089] was tested. Which “H: barnyard grass” value did it give?
Answer: Its value is 4 (Herbicidal rate of 70% or more and less than 90%).

tested on: blackgrass; test: Test Example 4: herbicidal effect by soil treatment (Table 19, symbol J); assay type: in vivo, blackgrass (Alopecurus myosuroides); conditions: amount of applied herbicide 320 g/ha
How it was run: as §2

Question: For `CCCC(=O)Oc1c(C)nn(C)c(=O)c1-c1c(-c2ccc3c(c2)OCCO3)sc2cc(OC)ccc12` [3-083], which “J: blackgrass, herbicidal effect grade” value is on record?
Answer: The value was 0 (Herbicidal rate of 5% or less (almost no effect)).

Question: `CCOc1ccc2c(-c3c(O)c(C)nn(C)c3=O)c(-c3ccccc3OC)sc2c1` [3-089] was tested. Which “J: blackgrass, herbicidal effect grade” value did it give?
Answer: Its value is 4 (Herbicidal rate of 70% or more and less than 90%).

tested on: Italian ryegrass; test: Test Example 4: herbicidal effect by soil treatment (Table 19, symbol K); assay type: in vivo, Italian ryegrass (Lolium multiflorum); conditions: amount of applied herbicide 320 g/ha
How it was run: as §2

Question: `CCCC(=O)Oc1c(C)nn(C)c(=O)c1-c1c(-c2ccc3c(c2)OCCO3)sc2cc(OC)ccc12` [3-083] was tested. Which “K: Italian ryegrass, herbicidal effect grade” value (from here on “K: Italian ryegrass”) did it give?
Answer: Its value is 0 (Herbicidal rate of 5% or less (almost no effect)).

Question: How did the “K: Italian ryegrass” value turn out when `CCOc1ccc2c(-c3c(O)c(C)nn(C)c3=O)c(-c3ccccc3OC)sc2c1` [3-089] was run?
Answer: The value was 4 (Herbicidal rate of 70% or more and less than 90%).

tested on: lambsquarters; test: Test Example 4: herbicidal effect by soil treatment (Table 19, symbol O); assay type: in vivo, lambsquarters (Chenopodium album); conditions: amount of applied herbicide 320 g/ha
How it was run: as §2

Question: How did the “O: lambsquarters, herbicidal effect grade” value (“O: lambsquarters” below) turn out when `CCCC(=O)Oc1c(C)nn(C)c(=O)c1-c1c(-c2ccc3c(c2)OCCO3)sc2cc(OC)ccc12` [3-083] was run?
Answer: The value was 3 (Herbicidal rate of 40% or more and less than 70%).

Question: For `CCOc1ccc2c(-c3c(O)c(C)nn(C)c3=O)c(-c3ccccc3OC)sc2c1` [3-089], which “O: lambsquarters” value is on record?
Answer: Its value is 4 (Herbicidal rate of 70% or more and less than 90%).

tested on: barnyard grass; test: Test Example 5: herbicidal effect by foliage application, plastic box (Table 20, symbol H); assay type: in vivo, barnyard grass (Echinochloa crus-galli); conditions: foliage application, 320 g/ha, three weeks after application
How it was run: (§3)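 Plants were sown into sterilized diluvial soil under about 1.5 cm cover and kept in a greenhouse at 25° C. to 30° C. Fourteen days on, foliage received an even spray of the diluted emulsion. Herbicidal or crop effect was judged three weeks afterwards.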

Question: Which “H: barnyard grass” value does the source give for `CCCC(=O)Oc1c(C)nn(C)c(=O)c1-c1c(-c2ccc3c(c2)OCCO3)sc2cc(OC)ccc12` [3-083] here?
Answer: The value was 2 (Herbicidal rate of 20% or more and less than 40%).

Question: Which “H: barnyard grass” value does the source give for `CCOc1ccc2c(-c3c(O)c(C)nn(C)c3=O)c(-c3ccccc3OC)sc2c1` [3-089] here?
Answer: The value was 5 (Herbicidal rate of 90% or more (almost completely withered)).

tested on: wild oat; test: Test Example 5: herbicidal effect by foliage application, plastic box (Table 20, symbol I); assay type: in vivo, wild oat (Avena fatua); conditions: foliage application, 320 g/ha, three weeks after application
How it was run: as §3

Question: How did the “I: wild oat, herbicidal effect grade” value turn out when `CCCC(=O)Oc1c(C)nn(C)c(=O)c1-c1c(-c2ccc3c(c2)OCCO3)sc2cc(OC)ccc12` [3-083] was run?
Answer: Its value is 0 (Herbicidal rate of 5% or less (almost no effect)).

Question: Which “I: wild oat, herbicidal effect grade” value does the source give for `CCOc1ccc2c(-c3c(O)c(C)nn(C)c3=O)c(-c3ccccc3OC)sc2c1` [3-089] here?
Answer: The value was 3 (Herbicidal rate of 40% or more and less than 70%).

tested on: blackgrass; test: Test Example 5: herbicidal effect by foliage application, plastic box (Table 20, symbol J); assay type: in vivo, blackgrass (Alopecurus myosuroides); conditions: foliage application, 320 g/ha, three weeks after application
How it was run: as §3

Question: Which “J: blackgrass, herbicidal effect grade” value does the source give for `CCCC(=O)Oc1c(C)nn(C)c(=O)c1-c1c(-c2ccc3c(c2)OCCO3)sc2cc(OC)ccc12` [3-083] here?
Answer: Its value is 0 (Herbicidal rate of 5% or less (almost no effect)).

Question: Which “J: blackgrass, herbicidal effect grade” value does the source give for `CCOc1ccc2c(-c3c(O)c(C)nn(C)c3=O)c(-c3ccccc3OC)sc2c1` [3-089] here?
Answer: The value was 5 (Herbicidal rate of 90% or more (almost completely withered)).

tested on: Italian ryegrass; test: Test Example 5: herbicidal effect by foliage application, plastic box (Table 20, symbol K); assay type: in vivo, Italian ryegrass (Lolium multiflorum); conditions: foliage application, 320 g/ha, three weeks after application
How it was run: as §3

Question: Which “K: Italian ryegrass” value does the source give for `CCCC(=O)Oc1c(C)nn(C)c(=O)c1-c1c(-c2ccc3c(c2)OCCO3)sc2cc(OC)ccc12` [3-083] here?
Answer: Its value is 1 (Herbicidal rate of 5% or more and less than 20%).

Question: `CCOc1ccc2c(-c3c(O)c(C)nn(C)c3=O)c(-c3ccccc3OC)sc2c1` [3-089] was tested. Which “K: Italian ryegrass” value did it give?
Answer: The value was 5 (Herbicidal rate of 90% or more (almost completely withered)).

tested on: windgrass; test: Test Example 5: herbicidal effect by foliage application, plastic box (Table 20, symbol L); assay type: in vivo, windgrass (Apera spica-venti); conditions: foliage application, 320 g/ha, three weeks after application
How it was run: as §3

Question: Which “L: windgrass, herbicidal effect grade” value does the source give for `CCCC(=O)Oc1c(C)nn(C)c(=O)c1-c1c(-c2ccc3c(c2)OCCO3)sc2cc(OC)ccc12` [3-083] here?
Answer: The value was 0 (Herbicidal rate of 5% or less (almost no effect)).

Question: Which “L: windgrass, herbicidal effect grade” value does the source give for `CCOc1ccc2c(-c3c(O)c(C)nn(C)c3=O)c(-c3ccccc3OC)sc2c1` [3-089] here?
Answer: The value was 5 (Herbicidal rate of 90% or more (almost completely withered)).

tested on: velvetleaf; test: Test Example 5: herbicidal effect by foliage application, plastic box (Table 20, symbol M); assay type: in vivo, velvetleaf (Abutilon theophrasti); conditions: foliage application, 320 g/ha, three weeks after application
How it was run: as §3

Question: `CCCC(=O)Oc1c(C)nn(C)c(=O)c1-c1c(-c2ccc3c(c2)OCCO3)sc2cc(OC)ccc12` [3-083] was tested. Which “M: velvetleaf, herbicidal effect grade” value did it give?
Answer: The value was 3 (Herbicidal rate of 40% or more and less than 70%).

Question: Which “M: velvetleaf, herbicidal effect grade” value does the source give for `CCOc1ccc2c(-c3c(O)c(C)nn(C)c3=O)c(-c3ccccc3OC)sc2c1` [3-089] here?
Answer: The value was 5 (Herbicidal rate of 90% or more (almost completely withered)).

tested on: lambsquarters; test: Test Example 5: herbicidal effect by foliage application, plastic box (Table 20, symbol O); assay type: in vivo, lambsquarters (Chenopodium album); conditions: foliage application, 320 g/ha, three weeks after application
How it was run: as §3

Question: Which “O: lambsquarters” value does the source give for `CCCC(=O)Oc1c(C)nn(C)c(=O)c1-c1c(-c2ccc3c(c2)OCCO3)sc2cc(OC)ccc12` [3-083] here?
Answer: Its value is 0 (Herbicidal rate of 5% or less (almost no effect)).

Question: Which “O: lambsquarters” value does the source give for `CCOc1ccc2c(-c3c(O)c(C)nn(C)c3=O)c(-c3ccccc3OC)sc2c1` [3-089] here?
Answer: Its value is 4 (Herbicidal rate of 70% or more and less than 90%).

tested on: chickweed; test: Test Example 5: herbicidal effect by foliage application, plastic box (Table 20, symbol P); assay type: in vivo, common chickweed (Stellaria media); conditions: foliage application, 320 g/ha, three weeks after application
How it was run: as §3

Question: With `CCCC(=O)Oc1c(C)nn(C)c(=O)c1-c1c(-c2ccc3c(c2)OCCO3)sc2cc(OC)ccc12` [3-083] as the compound, how does the “P: chickweed, herbicidal effect grade” value read?
Answer: The value was 5 (Herbicidal rate of 90% or more (almost completely withered)).

Question: How did the “P: chickweed, herbicidal effect grade” value turn out when `CCOc1ccc2c(-c3c(O)c(C)nn(C)c3=O)c(-c3ccccc3OC)sc2c1` [3-089] was run?
Answer: The value was 5 (Herbicidal rate of 90% or more (almost completely withered)).

tested on: persian speedwell; test: Test Example 5: herbicidal effect by foliage application, plastic box (Table 20, symbol R); assay type: in vivo, Persian speedwell (Veronica persica); conditions: foliage application, 320 g/ha, three weeks after application
How it was run: as §3

Question: Which “R: persian speedwell, herbicidal effect grade” value does the source give for `CCCC(=O)Oc1c(C)nn(C)c(=O)c1-c1c(-c2ccc3c(c2)OCCO3)sc2cc(OC)ccc12` [3-083] here?
Answer: Its value is 5 (Herbicidal rate of 90% or more (almost completely withered)).

Question: How did the “R: persian speedwell, herbicidal effect grade” value turn out when `CCOc1ccc2c(-c3c(O)c(C)nn(C)c3=O)c(-c3ccccc3OC)sc2c1` [3-089] was run?
Answer: Its value is 5 (Herbicidal rate of 90% or more (almost completely withered)).

From patent publication US20230085307A1, “PYRIDAZINONE COMPOUND AND HERBICIDE” (NISSAN CHEMICAL CORPORATION, priority 2019, published 2023)
